Results on 15 compounds are retold here after US11053223B2, “Phenoxyquinazoline compounds and their use in treating cancer” (AstraZeneca AB, priority 2017, dated 2021).

As usually defined, the GI50 is the concentration giving 50% growth inhibition.

The target of test [1] is T1, KIT exon11 deletion (557-558) and secondary mutation V654A (Homo sapiens, UniProt P10721, DEL557-558/V654A).
T1 construct: expressed in transfected cells; host or cells: Ba/F3 cells infected with lentivirus (pLVX-IRES Puro vector)
In words: MTS viability assay, Ba/F3 expressing KIT exon11 deletion (557-558) and V654A. It is filed as cell-based. The note with it: 72 h, KIT exon11 deletion (557-558) plus secondary mutation, mean of at least 3 biological replicates. As for the experimental part: (§1) 3 different KIT cDNA encoding for the exon11 deletion (557-558) and a secondary mutation (V654A, T670I, D816H) from Genescript were cloned into pLVX-IRES Puro vector(Clontech). Lentiviral particles were generated using Trans-lentiviral ORF packaging kit (TLP 5918) from Thermo Scientific (Waltham, Mass.) in HEK293-T/17 cells, according to the manufacturer's instructions.
(§2) Exponentially grown Ba/F3 cells (1.5×10^6 cells in 2 ml medium) were infected with 2 ml of viral suspension in a 6-well plate in the presence of mIL-3 (10 ng/ml) and polybrene (4 μg/ml) (Sigma Aldrich, St. Louis, Mo.) and incubated for 24 h. After 24 h, the cells were centrifuged and the viral supernatant was discarded. The cells were then re-suspended in fresh medium and allowed to recover for another day. The following day, the cells were seeded in complete medium without murine IL-3. After a week or two, when cells started proliferating, a selection was carried out by gradually increasing the puromycin concentration to 0.5 ug/ml. Once the cells were growing exponentially in puromycin, batches of cells were frozen down for banking.
(§3) The impact of KIT inhibitors on the viability of Ba/F3 expressing KIT mutations was determined using an MTS assay, which is a colorimetric sensitive quantification of viable cells in proliferation and cytotoxicity assay. In the MTS assay […] in the presence of phenazine methosulfate (PMS) was used. The mitochondrial reductase forms a formazan which absorbs at 490 nm. Cells in exponential growth phase were added to 384-well plates containing pre-dispensed compounds (top concentration 10 uM, 10-point curve). The cells were incubated for 72 h at 37° C. and 5% CO2. After 72 h, MTS reagent was added to the plates and incubated an additional 2 h at 37° C. before measuring the absorbance at 490 nm on a Tecan microplate reader using Magellan Software (Tecan Trading AG, Switzerland).
(§4) The absorbances were normalized as follows: (Read-Day0 control)/(Day3 control-Day0 control)*100. The GI50 values were generated using Genedata Screener software (Genedata; Lexington, Mass.). A non-linear regression with constraints for top and bottom between 100 and −100 and no constraint on the Hill coefficient was used to generate GI50 values. The GI50 values reported below are the calculated mean result of at least 3 biological replicates across all the cell lines tested.
In general terms: Formazan colour is commonly taken as a measure of viable cells.

For test [2], the target named is T2, KIT exon11 deletion (557-558) and secondary mutation D816H (Homo sapiens, UniProt P10721, D816H/DEL557-558).
T2 construct: expressed in transfected cells; host or cells: Ba/F3 cells infected with lentivirus (pLVX-IRES Puro vector)
In words: MTS viability assay, Ba/F3 expressing KIT exon11 deletion (557-558) and D816H. The test is classed as cell-based. The note with it: 72 h, KIT exon11 deletion (557-558) plus secondary mutation, mean of at least 3 biological replicates. As for the experimental part: as §1, §2, §3, §4

The target in test [3] is T3, KIT exon11 deletion (557-558) and secondary mutation T670I (Homo sapiens, UniProt P10721, DEL557-558/T670I).
T3 construct: expressed in transfected cells; host or cells: Ba/F3 cells infected with lentivirus (pLVX-IRES Puro vector)
In words: MTS viability assay, Ba/F3 expressing KIT exon11 deletion (557-558) and T670I. The note with it: 72 h, KIT exon11 deletion (557-558) plus secondary mutation, mean of at least 3 biological replicates. The test is classed as cell-based. As to the method:
as §1, §2, §3, §4

In test [4] the test system is Tel-KDR (KDR K790-V1356 fused to the C-terminus of Tel). Put plainly: MTS viability assay, Ba/F3 expressing Tel-KDR. The test is classed as cell-based. The note with it: 72 h, Ba/F3 cells, mean of at least 3 biological replicates. As for the experimental part: Tel-KDR myc was cloned into pBCS2004, a retroviral vector, wherein KDR (K790-V1356) is fused to the C-terminus of Tel. Retroviral particles were generated in HEK293T cells. The Tel-KDR plasmid was co-transfected with helper viruses (gag-Pol and VSV-G) into HEK293T cells using calcium phosphate and the virus was harvested 72 h after transfection.
as §2, §3, §4

Another test deals with Ba/F3-Parental. In words: MTS viability assay, Ba/F3 parental cells. It is filed as cell-based. The note with it: Mus musculus, BaF3, 72 h, top concentration 10 uM, mean of at least 3 biological replicates. As to the method:
as §3, §4

The subject of test [5] is GIST. The note with it: PhIII study, patients with GIST after relapse to imatinib and sunitinib; cited from earlier work.
The subject of test [6] is GIST. The note with it: within 2 years; cited from earlier work.

T2 sequence (P10721 with tags, fused parts or gaps DEL557-558/D816H): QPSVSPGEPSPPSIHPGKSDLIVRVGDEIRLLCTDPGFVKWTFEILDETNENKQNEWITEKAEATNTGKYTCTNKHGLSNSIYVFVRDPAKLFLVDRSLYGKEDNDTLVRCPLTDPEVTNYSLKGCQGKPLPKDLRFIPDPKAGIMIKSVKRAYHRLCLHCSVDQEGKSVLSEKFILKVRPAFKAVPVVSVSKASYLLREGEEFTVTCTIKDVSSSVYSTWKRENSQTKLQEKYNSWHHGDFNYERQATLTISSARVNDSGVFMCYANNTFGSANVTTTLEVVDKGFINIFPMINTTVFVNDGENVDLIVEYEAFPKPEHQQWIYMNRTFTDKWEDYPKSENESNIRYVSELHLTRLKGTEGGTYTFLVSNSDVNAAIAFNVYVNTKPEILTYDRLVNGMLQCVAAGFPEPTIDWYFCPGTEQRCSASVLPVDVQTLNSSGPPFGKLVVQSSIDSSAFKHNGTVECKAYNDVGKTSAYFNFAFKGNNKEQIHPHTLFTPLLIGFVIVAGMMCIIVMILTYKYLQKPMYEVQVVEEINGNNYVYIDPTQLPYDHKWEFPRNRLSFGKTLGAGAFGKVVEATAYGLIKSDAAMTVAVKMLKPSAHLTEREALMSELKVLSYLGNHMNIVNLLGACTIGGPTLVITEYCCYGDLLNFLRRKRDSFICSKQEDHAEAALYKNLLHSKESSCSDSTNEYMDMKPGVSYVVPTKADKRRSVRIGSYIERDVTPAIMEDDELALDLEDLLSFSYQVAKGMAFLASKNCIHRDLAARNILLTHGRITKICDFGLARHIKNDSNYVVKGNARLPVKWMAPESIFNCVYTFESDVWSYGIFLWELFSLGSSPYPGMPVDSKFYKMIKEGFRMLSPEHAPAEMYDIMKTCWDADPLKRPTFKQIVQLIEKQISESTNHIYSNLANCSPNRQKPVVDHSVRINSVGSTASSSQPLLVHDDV
T3 sequence (P10721 with tags, fused parts or gaps DEL557-558/T670I): as the sequence (P10721 with tags, fused parts or gaps DEL557-558/D816H) above, with T643I, H789D counted along it
T1 sequence (P10721 with tags, fused parts or gaps DEL557-558/V654A): as the sequence (P10721 with tags, fused parts or gaps DEL557-558/D816H) above, with V627A, H789D counted along it

Take `COc1cc2c(Oc3ccc(NC(=O)Cn4cc(C(C)C)nn4)cc3)ncnc2cc1O[C@@H]1CCOC1` (single isomer, unassigned) [Example 12]: in test [1], the “Ba/F3-V654A GI50” value came to 11 nM. Further, in test [2], the “Ba/F3-D816H GI50” value came out at 22 nM. Also, in test [3], the “Ba/F3-T6701 GI50” value was determined as 23 nM. Besides, the GI50 in test [4] is 840 nM; in the test with Ba/F3-Parental it was ≥ 10000 nM.
For `COc1cc2c(Oc3ccc(NC(=O)Cn4cc(C(C)C)nn4)cc3)ncnc2cc1O[C@H]1CCOC1` (single isomer, unassigned) [Example 13] the same measures were 13 nM, 24 nM, 30 nM, 577 nM and ≥ 10000 nM.
For `COc1cc2ncnc(Oc3ccc(NC(=O)Cn4cc(C(C)C)nn4)cc3)c2cc1OC` [Example 1, N-(4-((6,7-Dimethoxyquinazolin-4-yl)oxy)phenyl)-2-(4-isopropyl-1H-1,2,3-triazol-1-yl)acetamide] the same measures were 3 nM, 19 nM, 17 nM, 600 nM and ≥ 10000 nM.
On to `COc1cc2ncnc(Oc3ccc(NC(=O)Cn4cc(C5CC5)nn4)cc3)c2cc1OC` [Example 2, 2-(4-Cyclopropyl-1H-1,2,3-triazol-1-yl)-N-(4-((6,7-dimethoxyquinazolin-4-yl)oxy)phenyl)acetamide], for which the “Ba/F3-V654A GI50” value in test [1] turned out to be 4 nM. Besides, the “Ba/F3-D816H GI50” value in test [2] stood at 95 nM. Also, the “Ba/F3-T6701 GI50” value in test [3] was 68 nM. In addition, the results for the GI50 (in test [4]; in the test on Ba/F3-Parental) were 1930 nM and ≥ 10000 nM, respectively.
Take `COc1cc(Oc2ncnc3cc(OC)c(OC)cc23)ccc1NC(=O)Cn1cc(C(C)C)nn1` [Example 3, N-(4-((6,7-Dimethoxyquinazolin-4-yl)oxy)-2-methoxyphenyl)-2-(4-isopropyl-1H-1,2,3-triazol-1-yl)acetamide]: the “Ba/F3-V654A GI50” value in test [1] was 13 nM. Besides, in test [2], the “Ba/F3-D816H GI50” value amounted to 41 nM. The “Ba/F3-T6701 GI50” value in test [3] was determined as 23 nM. Besides, the GI50 was 1080 nM in test [4] and ≥ 10000 nM with Ba/F3-Parental.
Regarding `COc1cc2ncnc(Oc3ccc(NC(=O)Cn4cc(C(C)C)nn4)cc3F)c2cc1OC` [Example 4, N-(4-((6,7-Dimethoxyquinazolin-4-yl)oxy)-3-fluorophenyl)-2-(4-isopropyl-1H-1,2,3-triazol-1-yl)acetamide], the “Ba/F3-V654A GI50” value in test [1] stood at 1 nM. In addition, the “Ba/F3-D816H GI50” value in test [2] stood at 15 nM. Also, in test [3], the “Ba/F3-T6701 GI50” value was 8 nM. The GI50 in test [4] is 142 nM; in the test with Ba/F3-Parental, ≥ 10000 nM.
On to `COCCOc1cc2ncnc(Oc3ccc(NC(=O)Cn4cc(C(C)C)nn4)cc3)c2cc1OC` [Example 5, 2-(4-Isopropyl-1H-1,2,3-triazol-1-yl)-N-(4-((6-methoxy-7-(2-methoxyethoxy)quinazolin-4-yl)oxy)phenyl)acetamide], for which, in test [1], the “Ba/F3-V654A GI50” value turned out to be 8 nM. For the same compound, the “Ba/F3-D816H GI50” value in test [2] is 15 nM. Further, in test [3], the “Ba/F3-T6701 GI50” value amounted to 11 nM. The results for the GI50 (in test [4]; in the test with Ba/F3-Parental) were 289 nM and ≥ 10000 nM, respectively.
For `COc1cc2c(Oc3ccc(NC(=O)Cn4cc(C(C)C)nn4)cc3)ncnc2cc1OCCN1CCCC1` [Example 6, 2-(4-Isopropyl-1H-1,2,3-triazol-1-yl)-N-(4-((6-methoxy-7-(2-(pyrrolidin-1-yl)ethoxy)quinazolin-4-yl)oxy)phenyl)acetamide] the same measures were 22 nM, 55 nM, 72 nM, 2770 nM and ≥ 10000 nM.
With `COc1cc2c(Oc3ccc(NC(=O)Cn4cc(C(C)C)nn4)cc3)ncnc2cc1OCCN(C)C` [Example 7, N-(4-((7-(2-(Dimethylamino)ethoxy)-6-methoxyquinazolin-4-yl)oxy)phenyl)-2-(4-isopropyl-1H-1,2,3-triazol-1-yl)acetamide], the “Ba/F3-V654A GI50” value in test [1] is 15 nM. Besides, in test [2], the “Ba/F3-D816H GI50” value came to 41 nM. Also, the “Ba/F3-T6701 GI50” value in test [3] was determined as 57 nM. Besides, the values for the GI50 (in test [4]; with Ba/F3-Parental) were 2520 nM and ≥ 10000 nM, respectively.
For `COc1cc2c(Oc3ccc(NC(=O)Cn4cc(C(C)C)nn4)cc3)ncnc2cc1OCCO` [Example 8, N-(4-((7-(2-Hydroxyethoxy)-6-methoxyquinazolin-4-yl)oxy)phenyl)-2-(4-isopropyl-1H-1,2,3-triazol-1-yl)acetamide] the same measures were 25 nM, 75 nM, 55 nM, 1160 nM and ≥ 10000 nM.
`COc1cc2c(Oc3ccc(NC(=O)Cn4cc(C(C)C)nn4)cc3)ncnc2cc1OC1CCOCC1` [Example 9, 2-(4-Isopropyl-1H-1,2,3-triazol-1-yl)-N-(4-((6-methoxy-7-((tetrahydro-2H-pyran-4-yl)oxy)quinazolin-4-yl)oxy)phenyl)acetamide]: the “Ba/F3-V654A GI50” value in test [1] turned out to be 17 nM. Also, the “Ba/F3-D816H GI50” value in test [2] turned out to be 46 nM. The “Ba/F3-T6701 GI50” value in test [3] is 77 nM. In addition, the 50% growth inhibitory concentration (GI50) is 2110 nM in test [4] and ≥ 10000 nM with Ba/F3-Parental.
For `COc1cc2c(Oc3ccc(NC(=O)Cn4cc(C(C)C)nn4)cc3)ncnc2cc1OC1COC1` [Example 10, 2-(4-Isopropyl-1H-1,2,3-triazol-1-yl)-N-(4-((6-methoxy-7-(oxetan-3-yloxy)quinazolin-4-yl)oxy)phenyl)acetamide] the same measures were 18 nM, 51 nM, 74 nM, 1840 nM and ≥ 10000 nM.
On the same counts, the results for `COc1cc2c(Oc3ccc(NC(=O)Cn4cc(C(C)C)nn4)cc3)ncnc2cc1OC(C)C` [Example 11, N-[4-(7-Isopropoxy-6-methoxy-quinazolin-4-yl)oxyphenyl]-2-(4-isopropyl-1H-1,2,3-triazol-1-yl)acetamide] are 16 nM, 28 nM, 57 nM, 903 nM and ≥ 10000 nM.
For `CNC(=O)c1cc(Oc2ccc(NC(=O)Nc3ccc(Cl)c(C(F)(F)F)c3)c(F)c2)ccn1` [Regorafenib], the “median PFS” value with GIST [5] is on record as 4.8 months.
Turning to `Cc1ccc(NC(=O)c2ccc(CN3CCN(C)CC3)cc2)cc1Nc1nccc(-c2cccnc2)n1` [imatinib, Imatinib], the patients developed resistance in the test on GIST [6] is on record as 50%.
